Laboratory results from patent US20250282736A1, “SMALL MOLECULE MODULATORS OF HUMAN PREGNANE X RECEPTOR” (ST. JUDE CHILDREN'S RESEARCH HOSPITAL, priority 2022, published 2025).
Like-named read-outs stand apart in the source and are kept apart here.

How the values were obtained:
[1] = molecular target: T1, hPXR (Homo sapiens (Human), UniProt O75469); test: cell-based hPXR agonistic assay; conditions: for Agonist (% activation at 10 μM): rifampicin at 10 μM as 100% activation, DMSO (0.3%) as 0%
[2] = molecular target: T1, hPXR; test: cell-based hPXR antagonistic assay; conditions: for inhibition at 10 µM: read-out: Antagonist (% inhibition at 10 μM)
[3] = molecular target: T1, hPXR; test: hPXR binding assay; conditions: for inhibition at 10 µM: read-out: Binding (% inhibition at 10 μM)
[4] = molecular target: T1, hPXR; test: cell-based hPXR inverse agonistic assay; conditions: for inhibition at 10 µM: read-out: Inverse agonist (% inhibition at 10 μM)
[5] = read-out: Binding (IC50/μM), hPXR binding assay

T1 sequence (O75469 whole entry): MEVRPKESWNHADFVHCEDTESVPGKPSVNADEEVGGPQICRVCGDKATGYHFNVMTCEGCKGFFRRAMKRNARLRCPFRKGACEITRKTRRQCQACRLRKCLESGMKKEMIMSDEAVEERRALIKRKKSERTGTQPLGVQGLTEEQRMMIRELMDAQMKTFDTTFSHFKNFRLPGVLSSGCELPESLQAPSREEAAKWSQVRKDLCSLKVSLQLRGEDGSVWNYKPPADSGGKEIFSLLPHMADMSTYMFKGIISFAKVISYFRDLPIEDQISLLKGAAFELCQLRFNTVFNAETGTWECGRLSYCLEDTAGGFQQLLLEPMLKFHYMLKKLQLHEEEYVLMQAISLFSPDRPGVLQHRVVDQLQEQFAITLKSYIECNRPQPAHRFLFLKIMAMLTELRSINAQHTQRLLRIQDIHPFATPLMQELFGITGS

Compound	EC50 [1] [µM]	Agonist (% activation at 10 μM) [1]	IC50 [2] [nM]	inhibition at 10 µM [2] [%]	inhibition at 10 µM [3] [%]	IC50 [3, 5] [µM]	IC50 [4] [µM]	EC50 ([1]; read-out: Agonist (EC50/μM), cell-based hPXR agonistic assay) [µM]	IC50 [3] [µM]	inhibition at 10 µM [4] [%]	IC50 ([4]; read-out: Inverse agonist (IC50/μM), cell-based hPXR inverse agonistic assay) [µM]
COc1ccc(OC)c(-n2nnc(N(S(=O)(=O)c3ccc(C(C)(C)C)cc3)S(=O)(=O)c3ccc(C(C)(C)C)cc3)c2C)c1 [K8]	0.19	(21 ± 3)%	1450 ± 200	49	70	0.14	> 30	–	–	–	–
CCCCOc1ccc(C(C)(C)C)cc1NC(=O)c1nnn(-c2cccnc2)c1C [H12]	–	(44 ± 4)%	> 30000	–	75	7.6 ± 2.06	> 30	4.28 ± 1.36	–	–	–
COc1ccc(-n2nnc(C(=O)Nc3cccc(C)c3)c2C)cc1 [E8]	> 30	–	> 30000	–	–	–	> 30	–	> 30	–	–
COc1ccc(OC)c(-n2nnc(C(=O)Sc3ccc(NC(C)=O)cc3)c2C)c1 [K2]	> 30	–	> 30000	–	38	8.47 ± 0.78	> 30	–	–	–	–
COc1ccc(OC)c(-n2nnc(C(=O)Nc3cc(C(C)(C)C)ccc3OCCCCCCCCOc3ccc(C(C)(C)C)cc3NC(=O)c3nnn(-c4cc(OC)ccc4OC)c3C)c2C)c1 [B20]	> 30	–	> 30000	–	–	–	> 30	–	> 30	–	–
CCCC(CC)Oc1ccc(C(C)(C)C)cc1NC(=O)c1nnn(-c2ccccc2OC)c1C (stereo not shown) [I1]	0.01	(8 ± 2)%	31	84	89	0.0062 ± 0.0001	> 30	–	–	–	–
CCC[C@@H](CC)Oc1ccc(C(C)(C)C)cc1NC(=O)c1nnn(-c2cc(OC)ccc2OC)c1C [M2, (R)—N-(5-(Tert-Butyl)-2-(Hexan-3-yloxy)Phenyl)-1-(2,5-Dimethoxyphenyl)-5-Methyl-1H-1,2,3-Triazole-4-Carboxamide]	> 30	–	52 ± 10	103	88	0.019 ± 0.003	0.0084 ± 0.004	–	–	130	–
COc1ccc(OC)c(-n2nnc(C(=O)Nc3ccc(N4CCN(C)CC4)cc3)c2C)c1 [A16]	> 30	–	> 30000	–	–	–	> 30	–	> 30	–	–
COc1ccc(OC)c(-n2nnc(C(=O)Nc3cccc(N4CCCCC4)c3)c2C)c1 [A12]	> 30	–	> 30000	–	50	9.37 ± 3.52	–	–	–	36	25.8 ± 6.27
COc1ccc(OC)c(-n2nnc(C(=O)Nc3cccc(N4CCN(C)CC4)c3)c2C)c1 [A15]	> 30	–	> 30000	–	–	–	> 30	–	> 30	–	–
CCC(C)Oc1ccc(C(C)(C)C)cc1NC(=O)c1nnn(-c2cc(Cl)ccc2OC)c1C (stereo not shown) [F10]	0.36 ± 0.16	(9 ± 1)%	19	79	90	0.0076 ± 0.0011	> 30	–	–	–	–
COc1ccc(OC)c(-n2nnc(C(=O)Nc3cc(C(C)(C)C)ccc3OCCCCN3CCN(C)CC3)c2C)c1 [B22, N-(5-(tert-butyl)-2-(4-(4-methylpiperazin-1-yl)butoxy)phenyl)-1-(2,5-dimethoxyphenyl)-5-methyl-1H-1,2,3-triazole-4-carboxamide]	> 30	–	6090 ± 850	114	–	–	3.08 ± 0.55	–	> 30	168	–
COc1ccc(OC)c(-n2nnc(C(=O)Nc3cc(OCCCCI)cc(C(C)(C)C)c3)c2C)c1 [D17, N-(3-(tert-butyl)-5-(4-iodobutoxy)phenyl)-1-(2,5-dimethoxyphenyl)-5-methyl-1H-1,2,3-triazole-4-carboxamide]	> 30	–	66 ± 7	112	50	0.18	0.0088 ± 0.003	–	–	120	–
CCC[C@H](CC)Oc1ccc(C(C)(C)C)cc1NC(=O)c1nnn(-c2cc(OC)c(OC)cc2OC)c1C [M9, (S)—N-(5-(Tert-Butyl)-2-(Hexan-3-yloxy)Phenyl)-5-Methyl-1-(2,4,5-Trimethoxyphenyl)-1H-1,2,3-Triazole-4-Carboxamide]	0.013 ± 0.01	(69 ± 4)%	120 ± 10	32	91	0.0078 ± 0.0001	> 30	–	–	–	–
CCCC(CC)Oc1ccc(C(C)(C)C)cc1NC(=O)c1nnn(-c2cc(OC)ccc2OC)c1C (stereo not shown) [B34, N-(5-(Tert-Butyl)-2-(Hexan-3-yloxy)Phenyl)-1-(2,5-Dimethoxyphenyl)-5-Methyl-1H-1,2,3-Triazole-4-Carboxamide]	> 30	–	12 ± 3	108	92	0.019	0.0023 ± 0.0008	–	–	147	–
CCC(C)Oc1ccc(C(C)(C)C)cc1NC(=O)c1nnn(-c2cc(C)ccc2OC)c1C (stereo not shown) [G12]	0.018	(17 ± 1)%	9.4	73	92	0.0076 ± 0.0031	> 30	–	–	–	–
CCC[C@H](CC)Oc1ccc(C(=O)OC)cc1NC(=O)c1nnn(-c2cc(OC)ccc2OC)c1C [M4, Methyl (S)-3-(1-(2,5-Dimethoxyphenyl)-5-Methyl-1H-1,2,3-Triazole-4-Carboxamido)-4-(Hexan-3-yloxy)Benzoate]	> 30	–	6	112	84	–	0.001	–	0.003	142	–

Next, values leading:

EC50 [1] [µM]	Agonist (% activation at 10 μM) [1]	IC50 [2] [nM]	inhibition at 10 µM [2] [%]	inhibition at 10 µM [3] [%]	IC50 [3, 5] [µM]	IC50 [4] [µM]	EC50 ([1]; read-out: Agonist (EC50/μM), cell-based hPXR agonistic assay) [µM]	IC50 [3] [µM]	inhibition at 10 µM [4] [%]	IC50 ([4]; read-out: Inverse agonist (IC50/μM), cell-based hPXR inverse agonistic assay) [µM]	Compound
> 30	–	> 30000	–	84	2.33 ± 0.43	> 30	–	–	–	–	COc1ccc(OC)c(-n2nnc(C(=O)Nc3cc(C(C)(C)C)ccc3O)c2C)c1 [B2, N-(5-(tert-butyl)-2-hydroxyphenyl)-1-(2,5-dimethoxyphenyl)-5-methyl-1H-1,2,3-triazole-4-carboxamide]
> 30	–	400	105	62	0.21	0.15 ± 0.04	–	–	96	–	CCCCOc1cc(NC(=O)c2nnn(-c3cc(C)ccc3OC)c2C)cc(C(C)(C)C)c1 [G9]
> 30	–	670 ± 160	94	61	0.042 ± 0.011	0.22	–	–	65	–	CCCCOc1cc(NC(=O)c2nnn(-c3cc(Cl)ccc3OC)c2C)cc(C(C)(C)C)c1 [F6]
> 30	–	17300 ± 1390	65	61	3.53 ± 0.58	1.7	–	–	107	–	COc1ccc(OC)c(-n2nnc(C(=O)Nc3cc(NCC(=O)O)cc(C(C)(C)C)c3)c2C)c1 [D9]
> 30	–	210	104	83	0.12	0.062	–	–	89	–	CCCCNc1cc(NC(=O)c2nnn(-c3cc(Cl)ccc3OC)c2C)cc(C(C)(C)C)c1 [F3]
> 30	–	430	105	73	0.16	0.1	–	–	126	–	COc1ccc(OC)c(-n2nnc(C(=O)Nc3cc(OCC(=O)OC(C)(C)C)cc(C(C)(C)C)c3)c2C)c1 [D31, tert-butyl 2-(3-(tert-butyl)-5-(1-(2,5-dimethoxyphenyl)-5-methyl-1H-1,2,3-triazole-4-carboxamido)phenoxy)acetate]
1.68 ± 0.34	(16 ± 6)%	> 30000	–	10	0.12	> 30	–	–	–	–	CCCCOc1ccc(C(C)(C)C)cc1NC(=O)c1nnn(-c2cc(OC)ccc2C)c1C [H11]
1.96 ± 0.19	(50 ± 14)%	> 30000	–	65	1.81 ± 0.52	> 30	–	–	–	–	COc1ccc(OC)c(-n2nnc(C(=O)Nc3ccc(NC(C)=O)c(C(C)(C)C)c3)c2C)c1 [C1, N-(4-acetamido-3-(tert-butyl)phenyl)-1-(2,5-dimethoxyphenyl)-5-methyl-1H-1,2,3-triazole-4-carboxamide]
> 30	–	920 ± 120	104	71	1.71 ± 0.33	0.19	–	–	118	–	COc1ccc(OC)c(-n2nnc(C(=O)Nc3cc(OCCCC(=O)O)cc(C(C)(C)C)c3)c2C)c1 [D30]
> 30	–	2700	82	59	1.09 ± 0.31	0.33	–	–	92	–	COc1ccc(OC)c(-n2nnc(C(=O)Nc3cc(OCCCCCCCCI)cc(C(C)(C)C)c3)c2C)c1 [D21, N-(3-(tert-butyl)-5-((8-iodooctyl)oxy)phenyl)-1-(2,5-dimethoxyphenyl)-5-methyl-1H-1,2,3-triazole-4-carboxamide]
> 30	–	1280 ± 280	189	77	1.13 ± 0.36	0.24	–	–	111	–	COc1ccc(OC)c(-n2nnc(C(=O)Nc3cc(OCCCCCCCC=O)cc(C(C)(C)C)c3)c2C)c1 [D26]
